According to patent US12214015B2, “Use of c-type natriuretic peptide variants to treat osteoarthritis” (priority 2015, dated 2025):
Bridges are numbered along the chain shown (N, C = ends). Where no end group is shown, it is not given here.

Assays:
[1] = biological target: T1, NPR-B (Homo sapiens, UniProt P20594); test: NPR-B signaling studies; type: biochemical
T1 sequence (P20594 23-1047): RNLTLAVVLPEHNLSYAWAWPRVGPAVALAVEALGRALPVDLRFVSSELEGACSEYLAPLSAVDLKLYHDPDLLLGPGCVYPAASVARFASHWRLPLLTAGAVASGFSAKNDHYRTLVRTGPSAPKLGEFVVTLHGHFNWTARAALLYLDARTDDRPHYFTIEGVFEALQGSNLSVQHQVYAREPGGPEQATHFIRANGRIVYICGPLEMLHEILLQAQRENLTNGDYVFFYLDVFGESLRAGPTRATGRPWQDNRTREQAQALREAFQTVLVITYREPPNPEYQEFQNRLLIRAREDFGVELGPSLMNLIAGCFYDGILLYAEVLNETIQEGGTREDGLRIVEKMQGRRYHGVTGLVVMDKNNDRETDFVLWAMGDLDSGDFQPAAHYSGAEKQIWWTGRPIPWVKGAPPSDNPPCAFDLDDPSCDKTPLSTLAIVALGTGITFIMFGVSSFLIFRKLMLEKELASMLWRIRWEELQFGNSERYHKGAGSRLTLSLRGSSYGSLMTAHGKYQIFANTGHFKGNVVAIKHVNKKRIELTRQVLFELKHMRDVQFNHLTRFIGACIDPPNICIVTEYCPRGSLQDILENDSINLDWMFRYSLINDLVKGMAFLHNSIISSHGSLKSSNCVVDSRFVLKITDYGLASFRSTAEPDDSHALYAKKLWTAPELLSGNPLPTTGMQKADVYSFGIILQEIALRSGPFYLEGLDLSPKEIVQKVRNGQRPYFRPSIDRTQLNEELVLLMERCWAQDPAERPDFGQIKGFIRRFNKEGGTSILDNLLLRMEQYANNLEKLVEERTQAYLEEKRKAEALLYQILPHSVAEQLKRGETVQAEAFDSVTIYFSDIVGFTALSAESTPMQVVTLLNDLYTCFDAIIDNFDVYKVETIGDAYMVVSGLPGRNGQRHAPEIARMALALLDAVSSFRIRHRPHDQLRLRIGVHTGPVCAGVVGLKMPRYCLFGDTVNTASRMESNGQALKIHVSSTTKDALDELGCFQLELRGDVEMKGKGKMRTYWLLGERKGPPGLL
Description: Natural substrates of NEP are small and natriuretic peptides (about 2.2 to about 3.2 kDa) are the largest of the natural substrates. According to X-ray crystallographic analyses, the NEP active-site is buried deep inside a central cavity, effectively restricting the size of substrate molecules to no more than about 3 kDa (Oefner et al., J. Mol. Biol., 296: 341-349 (2000)).
The present disclosure encompasses CNP variants designed for improved NPR-B selectivity based on a homology-based structural model of the NPR-B/CNP complex. Combining the experimental and computational structure data of natriuretic peptides bound to the various receptors with the published functional data, CNP variants were generated that continue to bind to NPR-B, but can potentially have reduced affinity to the NPR-C clearance receptor. […] Accordingly, CNP variants were generated to replace the corresponding Gly8 residue with a larger residue (Ser, Val, Thr, or Asn) to disrupt the CNP binding to NPR-C without affecting its binding to NPR-B. Further, one or more mutations were introduced at the C-terminal end of CNP, encompassing Gly15 to Gly21, which is predicted to interact with receptor-specific residues, based on the detailed structural analyses of the receptor/peptide complexes. […]

[2] = Body weight gain, late stage rat osteoarthritis study (Example 3); type: in vivo
Description: A model of late stage osteoarthritis was used to evaluate the efficacy of Pro-Gly-CNP-37 in pre-developed osteoarthritis (i.e., primary osteoarthritis). As described above in Examples 1 and 2, osteoarthritis was induced in the rear legs of rats by severing the meniscus. However, in contrast to Examples 1 and 2, the lesion pathology was allowed to progress for three weeks before IA or SC treatment with Pro-Gly-CNP-37 thereby simulating pre-existing OA (i.e., primary osteoarthritis). The overall study design is outlined in Table 9. In particular, male Lewis rats underwent a unilateral medial meniscal tear surgery on Study Day 0; administration of control vehicle or Pro-Gly-CNP-37 began on Study Day 21; and animals were euthanized at scheduled time points following the last dose on Study Day 22 (Groups 1-4) or Study Day 40 (Groups 5-11). The primary endpoints evaluated included histopathological examination of chondrocyte death/cartilage degeneration in the knee.

[3] = in vivo; conditions: rat
Description: (§1) As summarized in Table 6, groups of rats were treated with vehicle, Pro-Gly-CNP-37, or Gly-CNP-37. The dose route was intraarticular (IA) or subcutaneous (SC). The dose scheduling was either intraarticular administration three times per week (M, W, F) for 3 weeks (TIW×3W) or subcutaneous administration once daily for approximately 3 weeks (QD×3W). […] IA injections were given as a fixed dose whereas SC injections were given at a given dose per weight based on the most recently recorded body weight. For all rats, body weights were measured predose. For a 300-gram rat, the weekly IA dose regimen for the low, middle, and high levels was approximately equivalent to 15, 50, and 150 μg/kg/day, respectively.
(§2) The pharmacokinetic (PK) and pharmacodynamic (PD) properties of the CNP variants were evaluated. For the PK/PD analysis, timed blood collections were performed on 3 rats/group/time point as follows: 15, 30, 60, and 120 minutes post dosing for the IA groups and 5, 15, 30, 60, and 120 minutes post dosing for the SC groups. After blood collection, synovial lavage fluid (SLF, ˜50 μL/knee) was collected from each rat's left (normal) and right (operated) knee.
(§3) Individual plasma samples were analyzed for Pro-Gly-SNP-37 levels and mean concentration vs. time profiles were analyzed using a non-compartmental model for extravascular administration in Phoenix WinNonlin software.

[4] = rat, in vivo
Description: as §1, §2, §3

Compound: DLRVDTKSRAAWARLLQEHPNARKYKGANKKGLSKGCFGLKLDRIGSMSGLGC (ends and bridges not checked; cysteine pairing not given here) [CNP-53]
- binding and activation of NPR-B compared with wtCNP-22 [1]: can still bind and activate NPR-B similarly

Compound: CFGLKLDRIGSMSGLGC (disulfide 1-17 (inferred)) [CNP-17]
- binding and activation of NPR-B compared with wtCNP-22 [1]: can still bind and activate NPR-B similarly

Compound: CC[C@H](C)[C@@H]1NC(=O)[C@H](CCCNC(=N)N)NC(=O)[C@H](CC(=O)O)NC(=O)[C@H](CC(C)C)NC(=O)[C@H](CCCCN)NC(=O)[C@H](CC(C)C)NC(=O)CNC(=O)[C@H](Cc2ccccc2)NC(=O)[C@@H](NC(=O)CNC(=O)[C@H](CCCCN)NC(=O)[C@H](CO)NC(=O)[C@H](CC(C)C)NC(=O)CNC(=O)[C@H](CCCCN)NC(=O)[C@H](CCCCN)NC(=O)[C@H](CC(N)=O)NC(=O)[C@H](C)NC(=O)CNC(=O)[C@H](CCCCN)NC(=O)[C@H](Cc2ccc(O)cc2)NC(=O)[C@H](CCCCN)NC(=O)[C@H](CCCNC(=N)N)NC(=O)[C@H](C)NC(=O)[C@H](CC(N)=O)NC(=O)[C@@H]2CCCN2C(=O)[C@H](Cc2c[nH]cn2)NC(=O)[C@H](CCC(=O)O)NC(=O)[C@H](CCC(N)=O)NC(=O)CNC(=O)[C@@H]2CCCN2)CSSC[C@@H](C(=O)O)NC(=O)CNC(=O)[C@H](CC(C)C)NC(=O)CNC(=O)[C@H](CO)NC(=O)[C@H](CCSC)NC(=O)[C@H](CO)NC(=O)CNC1=O [Pro-Gly-CNP-37]
- body weight gain ([2]; 105 μg IA vs IA vehicle): significantly reduced
- body weight gain ([2]; 150 μg/kg SC vs SC vehicle): significantly reduced
- body weight change (FIG. 27) ([2]; treated animals, IA and SC): reduced body weight change
- AUC(0-t) ([3]; 10.5 ug): 28.6 ng·h/mL
- Cmax ([3]; 10.5 ug): 33.8 ng/mL
- Tmax ([3]; 10.5 ug): 15 min
- clearance ([3]; 10.5 ug): 5.77 mL/min
- half-life ([3]; 10.5 ug): 27 min
- AUC(0-t) ([3]; 35.5 ug): 99 ng·h/mL
- Cmax ([3]; 35.5 ug): 110 ng/mL
- Tmax ([3]; 35.5 ug): 15 min
- clearance ([3]; 35.5 ug): 5.36 mL/min
- half-life ([3]; 35.5 ug): 34.9 min
- AUC(0-t) ([3]; 105 ug): 147 ng·h/mL
- Cmax ([3]; 105 ug): 357 ng/mL
- Tmax ([3]; 105 ug): 15 min
- clearance ([3]; 105 ug): 9.19 mL/min
- half-life ([3]; 105 ug): 38.1 min
- AUC(0-t) ([3]; sc, 150 ug/kg): 16.3 ng·h/mL
- Cmax ([3]; sc, 150 ug/kg): 28.4 ng/mL
- Tmax ([3]; sc, 150 ug/kg): 15 min
- half-life ([3]; sc, 150 ug/kg): 23.8 min
- exposure vs dose [4]: generally dose-proportional
- appearance in systemic circulation ([4]; sc): appeared rapidly in systemic circulation
- CL ([4]; sc, 150 ug/kg): 121 mL/min
